This is an account of results in US10287267B2, “Isoquinolin-3-yl carboxamides and preparation and use thereof” (Samumed, LLC, priority 2016, dated 2019).

Test [1] concerns Wnt pathway (Sp5-Luc reporter, TCF/LEF binding sites) in SW480 colon carcinoma cells. As to the kind of experiment: Screening assay for Wnt activity: Sp5-Luc reporter gene assay.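 On all read-outs here: firefly luciferase luminescence read in stably transduced SW480 cells carrying the Sp5 promoter reporter with eight TCF/LEF sites, compounds given in 0.1% DMSO final.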 It is filed as cell-based, human. Conditions: Homo sapiens; for EC50: Sp5-Luc reporter, SW480 cells, 36 to 48 hours. Background: In a reporter assay the amount or activity of a reporter protein is the signal.
Method: The screening assay for Wnt activity is described as follows.
Following incubation, 15 μl of BriteLite Plus luminescence reagent (Perkin Elmer) was added to each well of the 384-well assay plates. The plates were placed on an orbital shaker for 2 min and then luminescence was quantified using the Envision (Perkin Elmer) plate reader.

In test [2] the test system is α-smooth muscle actin (αSMA) positive LL29 cells. In words: Inhibition of fibrotic process: αSMA in TGF-β1 treated primary human fibroblasts from IPF patients.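 On all read-outs here: controls were TGF-β1 stimulated wells with DMSO vehicle (positive) and cells given DMSO alone (negative), cultured in F12 medium with 1% fetal bovine serum.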 It is filed as cell-based. Conditions: Homo sapiens, Fibroblast; for EC50: 96 h, Table 8, LL29 fibroblasts from IPF patients, TGF-β1 20 ng/mL, 4 days, dose-response 10 μM to 0.94 nM; for inhibition at 10 µM: read-out: percent value in parentheses beside EC50 >10 μM.

The target of test [3] is recombinant GSK3β kinase (Homo sapiens (Human), UniProt P49841). As to the kind of experiment: GSK3β kinase assay (Ser/Thr 09 peptide Z-lyte FRET).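 Further: kinase activity read as coumarin to fluorescein emission ratio, 11-point threefold dilutions from 10 µM to 0.0003 µM in duplicate, unphosphorylated and phosphorylated peptide as 0% and 100% controls.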 It counts as biochemical. Conditions: 46 μM ATP, 1 h room temperature.
Test [4] has as its system IL-6. As to the kind of experiment: IL-6 inhibition in LPS-stimulated human peripheral blood mononuclear cells (HTRF).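 On all read-outs here: IL-6 detected by HTRF with an XL665- and Cryptate-labelled anti-IL-6 antibody pair, samples run in duplicate, EC50 obtained from a four-parameter Levenberg-Marquardt curve fit.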 It counts as cell-based. Conditions: Homo sapiens, PBMC; for inhibition at 10 µM: read-out: percent value in parentheses beside EC50 >10 μM; for EC50: Table 9, huPBMCs, LPS 50 ng/mL, 22 hours, dose-response starting from 10 μM. For orientation: In TR-FRET formats the signal depends on donor and acceptor labels being close together.
Method: After 22 hour incubation, a mixture of anti-IL6 XL665 and anti-IL-6 Cryptate diluted in reconstitution buffer (Catalog #62IL6PEC, Cisbio Inc., Bedford, Mass.) was added to each well. […] All samples were processed in duplicate. […] EC50 was determined using software generated by Dotmatics Limited (Windhill Bishops Stortford Herts, UK) using the Levenberg-Marquardt 4 parameter fitting procedure with finite different gradients.

The test system of test [5] is SW480 colon carcinoma cells. In words: Cell viability assay (CellTiter-Glo). It counts as cell-based, human. Conditions: Homo sapiens, 96 h; SW480 cells, CellTiter-Glo, four days incubation.
Test [6] relates to Tau phosphorylation at Ser396 (pSer396). In words: Tau phosphorylation assay (pSer396 ELISA / western blot) in SH-SY5Y cells.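 Further: EC50 for reduction of Tau pSer396 in lysed cells, measured by colorimetric ELISA or chemiluminescent western blot, both using the same pSer396 antibody.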 It is filed as cell-based, human. Conditions: Homo sapiens; SH-SY5Y cells, overnight (16-18 h) exposure; read-out: pSer396 Tau EC50.
Test [7] addresses recombinant DYRK1A kinase (Homo sapiens (Human), UniProt Q13627). In words: DYRK1A kinase assay (Ser/Thr 18 peptide Z-lyte FRET).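 Further: Read-out is the coumarin to fluorescein emission ratio, referenced to unphosphorylated (0%) and phosphorylated (100%) Ser/Thr 18 peptide controls, values from dose-response curves by non-linear regression.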 It is filed as biochemical. The conditions noted are these: 30 μM ATP, 1 h room temperature.

Chain of recombinant GSK3β kinase (P49841 whole entry): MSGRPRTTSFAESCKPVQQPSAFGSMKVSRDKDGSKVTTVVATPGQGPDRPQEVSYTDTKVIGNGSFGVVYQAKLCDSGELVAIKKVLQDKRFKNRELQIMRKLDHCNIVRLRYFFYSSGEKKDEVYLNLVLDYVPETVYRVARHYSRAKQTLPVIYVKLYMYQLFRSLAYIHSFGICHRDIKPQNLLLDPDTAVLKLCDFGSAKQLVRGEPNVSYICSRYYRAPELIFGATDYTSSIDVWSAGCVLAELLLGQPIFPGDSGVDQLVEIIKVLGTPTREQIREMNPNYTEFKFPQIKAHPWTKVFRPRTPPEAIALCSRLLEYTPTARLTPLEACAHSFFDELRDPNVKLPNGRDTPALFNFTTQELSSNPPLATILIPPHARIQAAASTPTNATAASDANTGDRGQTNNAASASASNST

Usually EC50 stands for the concentration that produces a half-maximal response. Consider `Cn1cc(-c2ccc3cnc(NC(=O)CN4CCN(C5CC5)CC4)cc3c2)cn1` [Compound 353, 2-(4-Cyclopropylpiperazin-1-yl)-N-(6-(1-methyl-1H-pyrazol-4-yl)isoquinolin-3-yl)acetamide], for which the EC50 in test [1] is 5710 nM; in test [2] it was more than 10000 nM; in test [3], 29 nM; in test [4], more than 10000 nM; in test [5] it was 8220 nM; in test [6] it was 724 nM. The EC50 in test [7] was determined as 8.6 nM. In addition, the inhibition at 10 µM in test [2] is 31.7%; in test [4] it was 39.9%.
For `Cn1cc(-c2ccc3cnc(NC(=O)CN4CCN(CCF)CC4)cc3c2)cn1` [Compound 354, 2-(4-(2-Fluoroethyl)piperazin-1-yl)-N-(6-(1-methyl-1H-pyrazol-4-yl)isoquinolin-3-yl)acetamide], the EC50 in test [1] was 2320 nM; in test [2], 346 nM; in test [3], 37 nM; in test [4], 7000 nM; in test [5] it was 4990 nM; in test [6], 1200 nM. In addition, the 50% effective concentration (EC50) in test [7] is 4.4 nM.
For the molecule `C[C@H]1CN(C)CCN1CC(=O)Nc1cc2cc(-c3cnn(C)c3)ccc2cn1` [Compound 355, (S)-2-(2,4-Dimethylpiperazin-1-yl)-N-(6-(1-methyl-1H-pyrazol-4-yl)isoquinolin-3-yl)acetamide], the 50% effective concentration (EC50) came out at 3510 nM in test [1]; 6190 nM in test [2]; 228 nM in test [3]; 9130 nM in test [4]; 8630 nM in test [5]; 1700 nM in test [6]. Further, in test [7], the EC50 came out at 6.4 nM.
For `Cn1cc(-c2ccc3cnc(NC(=O)C4CCN(CCO)CC4)cc3c2)cn1` [Compound 358, 1-(2-Hydroxyethyl)-N-(6-(1-methyl-1H-pyrazol-4-yl)isoquinolin-3-yl) piperidine-4-carboxamide], the EC50 amounted to 413 nM in test [1]; 145 nM in test [2]; 80 nM in test [3]; 613 nM in test [4]; 2370 nM in test [5]; 353 nM in test [6]. Moreover, the EC50 in test [7] came to 0.6 nM.
As to `Cn1cc(-c2ccc3cnc(NC(=O)C4CCN(Cc5ccccn5)CC4)cc3c2)cn1` [Compound 359, N-(6-(1-Methyl-1H-pyrazol-4-yl)isoquinolin-3-yl)-1-(pyridin-2-ylmethyl) piperidine-4-carboxamide], the concentration for a half-maximal effect (EC50) amounted to 669 nM in test [1]; 127 nM in test [2]; 82 nM in test [3]; 1030 nM in test [4]; 261 nM in test [5]; 521 nM in test [6]. The EC50 in test [7] came to 3 nM.
Consider `Cn1cc(-c2ccc3cnc(NC(=O)C4CCN(Cc5ncco5)CC4)cc3c2)cn1` [Compound 360, N-(6-(1-Methyl-1H-pyrazol-4-yl)isoquinolin-3-yl)-1-(oxazol-2-ylmethyl) piperidine-4-carboxamide], for which the concentration for a half-maximal effect (EC50) in test [1] was found to be 690 nM; in test [2], 94 nM; in test [3] it was 47 nM; in test [4], 1170 nM; in test [5], 570 nM; in test [6], 659 nM. Also, the EC50 in test [7] is 1.9 nM.
As for `CN1CCC[C@@H]1C(=O)Nc1cc2cc(-c3cnn(C)c3)ccc2cn1` [Compound 363, (R)-1-Methyl-N-(6-(1-methyl-1H-pyrazol-4-yl)isoquinolin-3-yl)pyrrolidine-2-carboxamide], the EC50 in test [1] came out at 2360 nM; in test [2], 387 nM; in test [3], 35 nM; in test [4] it was 1220 nM; in test [5], 3060 nM; in test [6], 406 nM. Further, the EC50 in test [7] came to 50.3 nM.
`Cn1cc(-c2ccc3cnc(NC(=O)C4CC4)c(Cl)c3c2)cn1` [Compound 364, N-(4-Chloro-6-(1-methyl-1H-pyrazol-4-yl)isoquinolin-3-yl) cyclopropanecarboxamide]: the inhibition at 10 µM was 24.1% in test [1] (SW480, read-out: percent inhibition at 10 μM); 15% in test [2]; 5.8% in test [4]. The EC50 is more than 10000 nM in test [1]; more than 10000 nM in test [2]; 3120 nM in test [3]; more than 10000 nM in test [4]; 5600 nM in test [5]; more than 10000 nM in test [6]. Moreover, in test [7], the half-maximal effective concentration (EC50) worked out at 840 nM.
Consider `Cn1cc(-c2ccc3cnc(NC(=O)[C@H]4CC[C@H](N)CC4)cc3c2)cn1` [Compound 365, trans-4-Amino-N-(6-(1-methyl-1H-pyrazol-4-yl)isoquinolin-3-yl) cyclohexane-1-carboxamide], for which the EC50 was found to be 381 nM in test [1]; 4800 nM in test [2]; 52 nM in test [3]; 526 nM in test [4]; 522 nM in test [5]; 1200 nM in test [6]. For the same molecule, the EC50 in test [7] was 2.7 nM.
With `Cn1cc(-c2cc(F)c3cnc(NC(=O)C4CCNCC4)cc3c2)cn1` [Compound 366, N-(8-Fluoro-6-(1-methyl-1H-pyrazol-4-yl)isoquinolin-3-yl)piperidine-4-carboxamide], the concentration giving a half-maximal response (EC50) in test [1] worked out at 334 nM; in test [2] it was 173 nM; in test [3] it was 116 nM; in test [4], 1120 nM; in test [5], 910 nM; in test [6] it was 1100 nM. In test [7], the EC50 came to 10.6 nM.
Turning to `CC(C)CN1CCC(C(=O)Nc2cc3cc(-c4cnn(C)c4)cc(F)c3cn2)CC1` [Compound 367, N-(8-Fluoro-6-(1-methyl-1H-pyrazol-4-yl)isoquinolin-3-yl)-1-isobutylpiperidine-4-carboxamide], the EC50 was 524 nM in test [1]; 211 nM in test [2]; 56 nM in test [3]; 1150 nM in test [4]; 8240 nM in test [5]; 258 nM in test [6]. In addition, the EC50 in test [7] was found to be 11.1 nM.
On to `Cn1cc(-c2cc(F)c3cnc(NC(=O)C4CCN(CCF)CC4)cc3c2)cn1` [Compound 368, N-(8-Fluoro-6-(1-methyl-1H-pyrazol-4-yl)isoquinolin-3-yl)-1-(2-fluoroethyl) piperidine-4-carboxamide], for which the EC50 came to 689 nM in test [1]; 272 nM in test [2]; 51 nM in test [3]; 1190 nM in test [4]; 651 nM in test [5]; 660 nM in test [6]. In addition, the EC50 in test [7] is 7.9 nM.
On to `Cn1cc(-c2cc3cc(NC(=O)C4CCNCC4)ncc3cc2F)cn1` [Compound 369, N-(7-Fluoro-6-(1-methyl-1H-pyrazol-4-yl)isoquinolin-3-yl)piperidine-4-carboxamide], for which the EC50 in test [1] turned out to be 743 nM; in test [2], 295 nM; in test [3] it was 101 nM; in test [4], 1130 nM; in test [5], 864 nM; in test [6], 970 nM. The concentration giving a half-maximal response (EC50) in test [7] was 2.8 nM.
In the case of `CC(C)CN1CCC(C(=O)Nc2cc3cc(-c4cnn(C)c4)c(F)cc3cn2)CC1` [Compound 370, N-(7-Fluoro-6-(1-methyl-1H-pyrazol-4-yl)isoquinolin-3-yl)-1-isobutylpiperidine-4-carboxamide], the EC50 is 608 nM in test [1]; 379 nM in test [2]; 89 nM in test [3]; 3710 nM in test [4]; 1250 nM in test [5]; 256 nM in test [6]. Moreover, the EC50 in test [7] was 3.1 nM.
As to `Cn1cc(-c2cc3cc(NC(=O)C4CCN(CCF)CC4)ncc3cc2F)cn1` [Compound 371, N-(7-Fluoro-6-(1-methyl-1H-pyrazol-4-yl)isoquinolin-3-yl)-1-(2-fluoroethyl) piperidine-4-carboxamide], the EC50 was determined as 643 nM in test [1]; 394 nM in test [2]; 23 nM in test [3]; 1210 nM in test [4]; 1060 nM in test [5]; 581 nM in test [6]. Also, the EC50 in test [7] was determined as 2.4 nM.
For `CN1CCN(CC(=O)Nc2cc3cc(-c4cnn(C)c4)c(F)cc3cn2)CC1` [Compound 372, N-(7-Fluoro-6-(1-methyl-1H-pyrazol-4-yl)isoquinolin-3-yl)-2-(4-methylpiperazin-1-yl)acetamide], the EC50 in test [1] turned out to be 3400 nM; in test [2] it was 504 nM; in test [3], 79 nM; in test [4], 3660 nM; in test [5], 8820 nM; in test [6], 1100 nM. For the same molecule, in test [7], the EC50 was 10.6 nM.
For `Cc1ncc(-c2ccc3cnc(NC(=O)C4(F)CC4)cc3c2)n1C` [Compound 376, N-(6-(1,2-Dimethyl-1H-imidazol-5-yl)isoquinolin-3-yl)-1-fluorocyclopropane-1-carboxamide], the EC50 in test [1] was 2210 nM; in test [2], more than 10000 nM; in test [3], 710 nM; in test [4], more than 10000 nM; in test [5], 4200 nM; in test [6], 7900 nM. The EC50 in test [7] is 5.5 nM. In addition, the figures for the inhibition at 10 µM in test [2] and in test [4] were 21% and 11.8%, respectively.
